Patent US8598225B2, “Use of L-butylphthalide in the manufacture of medicaments for treatment of cerebral infarct” (CSPC Zhongqi Pharmaceutical Technology (Shijiazhuang) Co., …, priority 2003, dated 2013)
“Also recorded” adds a separate entry of the source.

How the values were obtained:
[1] = tested on: transient focal cerebral ischemic model (tMCAO); test: Cerebral infarct volume of tMCAO rats (2 h middle cerebral artery occlusion, 24 h reperfusion, TTC staining); assay type: in vivo, rat; conditions: 15 min after ischemia; for effect on infarct volume (in words): oral, l-NBP and d-NBP 20 and 40 mg/kg, dl-NBP 40 and 80 mg/kg, vs. vehicle; for reduction of infarct volume vs. vehicle group: tMCAO rats, p<0.001
micro-circulation = conditions: previous studies; cited from earlier work
[2] = tested on: transient focal cerebral ischemic model (tMCAO); test: Neurological behavioral evaluation of tMCAO rats (score 0-4); conditions: for improvement of neurological symptoms (in words): oral, d-NBP 20 and 40 mg/kg, dl-NBP 40 and 80 mg/kg, vs. vehicle; for mean neurological score: 15 min after ischemia, scored at 24 h, vehicle 2.6±0.3
Experimental: Male Wistar rats weighed 280-320 g were used, with each 5 rats kept in one cage. Animals were allowed free access to food and water at room temperature controlled at 23° C. The rats were anesthetized with 40 mg/kg of sodium pentobarbital. Under the surgical microscope, a midline neck skin incision was make to expose the right common cartotid artery, and the internal carotid artery (ICA) and external carotid artery (ECA) were then separated free from surrounding nerves and fascia, and the anastomotic branch was ligated. The ECA were ligated and cut, pulled to be straight and in line with ICA. A nylon suture with rounded tip and the diameter of 0.28 mm (coated with poly-L-lysine) was introduced from ECA into the lumen of the ICA for about 20 mm, advancing endocranially to the starting point of middle cerebral artery.
After 2 h of ischemia, the nylon suture was carefully withdrawn, and the ECA was ligated at the site of opening. The rats were then sutured and placed back into the cage, and allowed to reperfuse for 24 h. Room temperature throughout the operation was kept at 24-25° C. The rats were placed on the heating plate of 37° C. to maintain the body temperature throughout the operation. The administration was performed 15 minutes after ischemia.
Rats were divided into eight groups with 10 rats in each group. Group 1 was vehicle control with 1 ml/kg of vegetable oil; groups 2) and 3) were 40 and 80 mg/kg of dl-NBP; groups 4) and 5) were 20 and 40 mg/kg of d-NBP; groups 6) and 7) were 20 and 40 mg/kg of l-NBP; and group 8 was 0.1 mg/kg of MK801. Animals in groups 1-7 were orally administered, and animals in group 8 were intraperitoneally administered.
Neurological behavioral observation was conducted after 24 h of ischemia. Rats were lifted up by tail 1 inch away from the ground, and the conditions of both forelimbs were observed; both shoulders were pushed to observe if there was any difference between the resistances by both sides; the rats were placed down to the ground and their walking conditions were observed. Scores were given in accordance with the following criteria. • 0: strong forelimbs, symmetrically stretching towards the ground; identical resistance of both shoulders, and normal walk. • 1: contralateral shoulder flexion, forelimb flexion; identical resistance of both shoulders, and normal walk. • 2: contralateral shoulder flexion, forelimb flexion; decreased resistance of contralateral shoulder to push; and normal walk. • 3: contralateral shoulder flexion, forelimb flexion; decreased resistance of contralateral shoulder to push; and circling when walking • 4: contralateral shoulder flexion, forelimb flexion; and unable to autonomously move. The higher the score is, the more severe the behavioral disorder of the animal is.
The results were expressed as mean±standard error. Neurological behavioral score and cerebral infarct volume were statistically analyzed using one-way ANOVA and the difference between groups using posthoc LSD test. Result was considered to show a significant difference when p<0.05.

[3] = tested on: acute ischemic cerebral stroke; conditions: administration group; 192 cases multi centered, random, double blinded, placebo control (placebo 41.0%); cited from earlier work

Compound	effect on infarct volume (in words) [1]	cerebral protective and micro-circulation improving effect (in words) (micro-circulation)	improvement of neurological symptoms (in words) [2]	total effective rate [3]	reduction of infarct volume vs. vehicle group ([1]; 0.1 mg/kg intraperitoneal)	mean neurological score ([2]; 0.1 mg/kg intraperitoneal, p<0.001)	adverse behavioral signs in treated animals ([2]; 0.1 mg/kg intraperitoneal, tMCAO rats)	reduction of infarct volume vs. vehicle group ([1]; 40 mg/kg oral, 24 h reperfusion)	mean neurological score ([2]; 20 mg/kg oral, p<0.01)	mean neurological score ([2]; 40 mg/kg oral, p<0.001)
CCCC[C@H]1OC(=O)c2ccccc21 [d-NBP, dextro-butylphthalide]	no significant effect	no such effect	no significant improvement	–	–	–	–	–	–	–
CCCCC1OC(=O)c2ccccc21 (racemic) [dl-NBP, racemic butylphthalide]	no significant effect; also recorded: no reduction effect	–	no significant improvement	70.7%	–	–	–	–	–	–
C[C@]12N[C@H](Cc3ccccc31)c1ccccc12 [MK801]	–	–	–	–	81.8%	0.8	the limbs were weak, and staggered when sprawling, ataxia occurred, and unilaterally circled	–	–	–
CCCC[C@@H]1OC(=O)c2ccccc21 [l-NBP, L-n-butylphthalide]	significantly reduced dose-dependently; also recorded: very significantly and dose dependently reduced	also has cerebral protective effect and micro-circulation improving effect	–	–	–	–	–	80.4%	1.4	1.1
